Test results taken from US20200163984A1, “USE OF ISOVALERYL SPIRAMYCIN I, II AND/OR III IN MANUFACTURING MEDICAMENT FOR TREATING AND/OR PREVENTING TUMOR, AND MEDICAMENT” (SHENYANG FUYANG PHARMACEUTICAL TECHNOLOGY CO., LTD., priority 2017, published 2020).

Experiments:
[1] = system: transplanted tumor of human breast cancer cell MCF-7; test: MCF-7 transplanted tumor in nude mice
Description: (§1) Then cell concentration was adjusted to 1×10^7/ml with matrigel, then each nude mouse was inoculated subcutaneously with 0.2 ml of cells at its right armpit and recorded as the first day of inoculation. When the tumor grows to be greater than or equal to 100 mm^3, the mice were randomly divided into 11 groups with 6 mice in each group: a model group, a cyclophosphamide group, isovaleryl spiramycin I groups with doses of 25, 50 and 100 mg/kg, isovaleryl spiramycin II groups with doses of 25, 50 and 100 mg/kg, and isovaleryl spiramycin III groups with doses of 25, 50 and 100 mg/kg. Each group was continuously administered intragastrically for 30 days with a dose of 20 ml/kg. The mice were sacrificed the next day after drug withdrawal and the indicators were tested. The long diameter and short diameter of the tumor, and the body weight of each mouse were recorded every 3 days from drug administration to nude mouse sacrifice.
(§2) The body weight of the nude mice and the long diameter (a) and short diameter (b) of the transplanted tumor were measured every 3 days, and the tumor volume (v), relative tumor volume (RTV) and relative tumor proliferation rate (T/C) are calculated respectively according to the following formulas, wherein V=a×b^2/2; RTV=V/V0 (V0 is the tumor volume before administration, V is the tumor volume before sacrifice), and T/C (%)=treatment group RTV/model control group RTV×100%.
(§3) Each mouse was weighed and sacrificed. After the tumor was completely stripped off from the body of the mouse, the non-tumor tissues such as blood stains and fat were removed to weigh the tumor and calculate the tumor growth inhibition rate. The average tumor weight of each group of mice is used as an indicator of efficacy. Tumor growth inhibition rate (%)=(1−the average tumor weight of the treatment group/the average tumor weight of the model group)×100%.

[2] = system: transplanted tumor of human breast cancer cell MDA-MB-231; test: MDA-MB-231 transplanted tumor in nude mice
Description: as §1, §2, §3

[3] = system: transplanted tumor of human pancreatic cancer cell PANC-1; test: PANC-1 transplanted tumor in nude mice; conditions: for Tumor Volume (mm3) (d 1): d1
Description: as §1, §2, §3

[4] = system: transplanted tumor of human thyroid cancer cell TPC-1; test: TPC-1 transplanted tumor in nude mice; conditions: for Tumor Volume (mm3) (d30): d 30
Description: as §1, with “group:” for “group: a model group, a cyclophosphamide group,”
as §2, §3

[5] = Spleen index of A549 lung cancer tumor-bearing mice; conditions: n = 6
[6] = MCF-7, 25 mg/kg (low dose) i.g. 30 days
[7] = MCF-7, 50 mg/kg (medium dose) i.g. 30 days
[8] = MCF-7, 100 mg/kg (high dose) i.g. 30 days
[9] = MDA-MB-231, 25 mg/kg (low dose) i.g. 30 days
[10] = MDA-MB-231, 50 mg/kg (medium dose) i.g. 30 days
[11] = MDA-MB-231, 100 mg/kg (high dose) i.g. 30 days
[12] = PANC-1, 12.5 mg/kg (low dose) i.g. 30 days
[13] = PANC-1, 25 mg/kg (medium dose) i.g. 30 days
[14] = PANC-1, 50 mg/kg (high dose) i.g. 30 days
[15] = TPC-1, high dose (100 mg/kg in method) i.g. 30 days
[16] = TPC-1, low dose (25 mg/kg in method) i.g. 30 days
[17] = TPC-1, medium dose (50 mg/kg in method) i.g. 30 days

mouse weight compared with the model group ([1]; mouse, in vivo): no significant changes
mouse weight compared with the model group ([2]; mouse, in vivo): no significant changes
mouse weight compared with the model group ([3]; mouse, in vivo): no significant changes
mouse weight compared with the model group ([4]; mouse, in vivo): no significant changes
SMILES: CO[C@@H]1[C@@H](O[C@@H]2O[C@H](C)[C@@H](O[C@H]3C[C@@](C)(O)[C@@H](OC(=O)CC(C)C)[C@H](C)O3)[C@H](N(C)C)[C@H]2O)[C@@H](CC=O)C[C@@H](C)[C@@H](O[C@H]2CC[C@H](N(C)C)[C@@H](C)O2)/C=C/C=C/C[C@@H](C)OC(=O)C[C@H]1O [Isovaleryl spiramycin I, isovaleryl spiramycin I]
Inhibition Rate (tumor growth inhibition rate) [1, 6]: 31.10%
Relative Tumor Proliferation Rate (T/C) [1, 6]: 71.92%
Relative Tumor Volume (RTV) [1, 6]: 12.59 ± 7.49
Tumor Volume (d 1) [1, 6]: 139.97 ± 26.58 mm3
Tumor Volume (d 30) [1, 6]: 1634.85 ± 789.61 mm3
Tumor Weight [1, 6]: 1.87 ± 0.25 g
Inhibition Rate (tumor growth inhibition rate) [1, 7]: 51.72%
Relative Tumor Proliferation Rate (T/C) [1, 7]: 49.05%
Relative Tumor Volume (RTV) [1, 7]: 8.58 ± 4.41
Tumor Volume (d 1) [1, 7]: 146.57 ± 32.97 mm3
Tumor Volume (d 30) [1, 7]: 1162.80 ± 394.71 mm3
Tumor Weight [1, 7]: 1.31 ± 0.50 g
Inhibition Rate (tumor growth inhibition rate) [1, 8]: 70.12%
Relative Tumor Proliferation Rate (T/C) [1, 8]: 30.80%
Relative Tumor Volume (RTV) [1, 8]: 5.39 ± 0.97
Tumor Volume (d 1) [1, 8]: 124.02 ± 15.14 mm3
Tumor Volume (d 30) [1, 8]: 656.95 ± 49.58 mm3
Tumor Weight [1, 8]: 0.81 ± 0.08 g
tumor volume and relative tumor volume compared with the model group ([1]; MCF-7, low, medium and high doses, P<0.05): significantly lower
Inhibition Rate (tumor growth inhibition rate) [2, 9]: 22.84%
Relative Tumor Proliferation Rate (T/C) [2, 9]: 69.71%
Relative Tumor Volume (RTV) [2, 9]: 10.89 ± 2.52
Tumor Volume (d 1) [2, 9]: 111.07 ± 8.47 mm3
Tumor Volume (d 30) [2, 9]: 1213.38 ± 299.29 mm3
Tumor Weight [2, 9]: 1.79 ± 0.34 g
Inhibition Rate (tumor growth inhibition rate) [2, 10]: 55.17%
Relative Tumor Proliferation Rate (T/C) [2, 10]: 44.18%
Relative Tumor Volume (RTV) [2, 10]: 6.90 ± 2.43
Tumor Volume (d 1) [2, 10]: 116.00 ± 8.13 mm3
Tumor Volume (d 30) [2, 10]: 807.45 ± 319.26 mm3
Tumor Weight [2, 10]: 1.04 ± 0.44 g
Inhibition Rate (tumor growth inhibition rate) [2, 11]: 69.11%
Relative Tumor Proliferation Rate (T/C) [2, 11]: 27.74%
Relative Tumor Volume (RTV) [2, 11]: 4.33 ± 3.47
Tumor Volume (d 1) [2, 11]: 111.91 ± 10.26 mm3
Tumor Volume (d 30) [2, 11]: 458.55 ± 338.74 mm3
Tumor Weight [2, 11]: 0.72 ± 0.48 g
tumor volume and relative tumor volume compared with the model group ([2]; MDA-MB-231, low, medium and high doses, P<0.05): significantly lower
Inhibition Rate (tumor growth inhibition rate) [3, 12]: 31.10%
Tumor Weight [3, 12]: 1.87 ± 0.25 g
Inhibition Rate (tumor growth inhibition rate) [3, 13]: 51.72%
Tumor Weight [3, 13]: 1.31 ± 0.50 g
Inhibition Rate (tumor growth inhibition rate) [3, 14]: 70.12%
Tumor Weight [3, 14]: 0.81 ± 0.08 g
Relative Tumor Proliferation Rate (T/C) ([3]; PANC-1, high dose i.g. 30 days): 30.80%
Relative Tumor Proliferation Rate (T/C) ([3]; PANC-1, low dose i.g. 30 days): 71.92%
tumor volume and relative tumor volume compared with the model group ([3]; PANC-1, low, medium and high doses, P<0.05): significantly lower
Relative Tumor Proliferation Rate (T/C) ([3]; PANC-1, medium dose i.g. 30 days): 49.05%
Relative Tumor Proliferation Rate (T/C) ([3]; PANC-1 nude mice, 12.5 mg/kg): 71.92%
Relative Tumor Volume (RTV) ([3]; PANC-1 nude mice, 12.5 mg/kg): 12.59 ± 7.49
Tumor Volume (mm3) (d 1) ([3]; PANC-1 nude mice, 12.5 mg/kg): 139.97 ± 26.58 mm3
Tumor Volume (mm3) (d30) ([3]; PANC-1 nude mice, 12.5 mg/kg): 1634.85 ± 789.61 mm3
Relative Tumor Proliferation Rate (T/C) ([3]; PANC-1 nude mice, 25 mg/kg): 49.05%
Relative Tumor Volume (RTV) ([3]; PANC-1 nude mice, 25 mg/kg): 8.58 ± 4.41
Tumor Volume (mm3) (d 1) ([3]; PANC-1 nude mice, 25 mg/kg): 146.57 ± 32.97 mm3
Tumor Volume (mm3) (d30) ([3]; PANC-1 nude mice, 25 mg/kg): 1162.80 ± 394.71 mm3
Relative Tumor Proliferation Rate (T/C) ([3]; PANC-1 nude mice, 50 mg/kg): 30.80%
Relative Tumor Volume (RTV) ([3]; PANC-1 nude mice, 50 mg/kg): 5.39 ± 0.97
Tumor Volume (mm3) (d 1) ([3]; PANC-1 nude mice, 50 mg/kg): 124.02 ± 15.14 mm3
Tumor Volume (mm3) (d30) ([3]; PANC-1 nude mice, 50 mg/kg): 656.95 ± 49.58 mm3
Relative Tumor Proliferation Rate (T/C) [4, 15]: 28.11%
tumor growth inhibition rate [4, 15]: 67.49%
Relative Tumor Proliferation Rate (T/C) [4, 16]: 65.45%
tumor growth inhibition rate [4, 16]: 23.88%
tumor volume and relative tumor volume compared with the model group ([4]; TPC-1, low, medium and high doses, P<0.05): significantly lower
Relative Tumor Proliferation Rate (T/C) [4, 17]: 43.43%
tumor growth inhibition rate [4, 17]: 57.28%
Inhibition Rate (%) ([4]; dose 25 mg/kg): 23.88%
Relative Tumor Proliferation Rate (T/C) ([4]; dose 25 mg/kg): 65.45%
Relative Tumor Volume (RTV) ([4]; dose 25 mg/kg): 10.77 ± 2.47
Tumor Weight ([4]; dose 25 mg/kg): 1.84 ± 0.25 g
Tumor Volume (mm3) (d 1) ([4]; dose 25 mg/kg): 115.05 ± 9.93 mm3
Tumor Volume (mm3) (d30) ([4]; dose 25 mg/kg): 1249.28 ± 337.45 mm3
Inhibition Rate (%) ([4]; dose 50 mg/kg): 57.28%
Relative Tumor Proliferation Rate (T/C) ([4]; dose 50 mg/kg): 43.43%
Relative Tumor Volume (RTV) ([4]; dose 50 mg/kg): 7.15 ± 3.19
Tumor Weight ([4]; dose 50 mg/kg): 1.03 ± 0.44 g
Tumor Volume (mm3) (d 1) ([4]; dose 50 mg/kg): 119.45 ± 4.30 mm3
Tumor Volume (mm3) (d30) ([4]; dose 50 mg/kg): 847.07 ± 356.87 mm3
Inhibition Rate (%) ([4]; dose 100 mg/kg): 67.49%
Relative Tumor Proliferation Rate (T/C) ([4]; dose 100 mg/kg): 28.11%
Relative Tumor Volume (RTV) ([4]; dose 100 mg/kg): 4.63 ± 3.34
Tumor Weight ([4]; dose 100 mg/kg): 0.79 ± 0.43 g
Tumor Volume (mm3) (d 1) ([4]; dose 100 mg/kg): 112.69 ± 11.49 mm3
Tumor Volume (mm3) (d30) ([4]; dose 100 mg/kg): 490.15 ± 322.14 mm3
Body Weight (g) (d1) ([4]; mouse, in vivo, 25 mg/kg): 21.75 ± 1.23 g
Body Weight (g) (d30) ([4]; mouse, in vivo, 25 mg/kg): 24.41 ± 1.32 g
Body Weight (g) (d1) ([4]; mouse, in vivo, 50 mg/kg): 21.53 ± 1.43 g
Body Weight (g) (d30) ([4]; mouse, in vivo, 50 mg/kg): 25.77 ± 1.10 g
Body Weight (g) (d1) ([4]; mouse, in vivo, 100 mg/kg): 21.76 ± 1.08 g
Body Weight (g) (d30) ([4]; mouse, in vivo, 100 mg/kg): 24.12 ± 1.20 g
Spleen Index (%) ([5]; dose 13 mg/kg): 0.32 ± 0.12%
Spleen Index (%) ([5]; dose 26 mg/kg): 0.38 ± 0.09%
Spleen Index (%) ([5]; dose 52 mg/kg): 0.31 ± 0.08%
